# Measured values reported in patent US10828284B2, “Compositions and methods for treating conditions related to elevated levels of eosinophils and/or basophils” (Knopp Biosciences LLC, priority 2013, dated 2020).
# Where two headings read alike, the source gives them in different places.
# How the values were obtained:
# basophils = settings: 300 mg daily, remained reduced through month 12
# Experimental: (§1) The phase 3 clinical trial was a double-blind study of dexpramipexole in ALS patients randomized 1:1 to placebo or dexpramipexole 300 mg daily treatment. Hematology parameters were collected as part of routine safety monitoring. Eosinophil and basophil counts were retrospectively analyzed by visit.
# Changes in basophil counts were also analyzed in the Phase 3 trial.
# eosinophils [1] = test system: eosinophils
# Experimental: In a 39-week repeat-dose toxicology study, minipigs were dosed at 0, 7.5, 25, and 75 mg/kg dexpramipexole by daily oral gavage through Study Day 45 and at 0, 7.5, 25, and 50 mg/kg dexpramipexole from Study Day 46 to study completion.
# eosinophils [2] = test system: eosinophils; remark: listed apart in the source
# Experimental: as §1
# Eosinophil levels were summarized over available time points and analyzed by ANOVA testing the effect of treatment vs. placebo on mean changes in serum eosinophil counts from baseline. Subjects with baseline eosinophils from 0 to 0.02×10^9/L (constituting less than 2% of all subjects analyzed) were censored from the primary analysis because of the inherent limitation to observe a decline from baseline.
# Statistical analysis of the change from baseline was performed at month 6 to remove the effect of study dropouts in later months.
# eosinophils [3] = settings: for mean eosinophils at week 16 recovered to, of baseline levels: after one-month washout following week 12
# Experimental: The Phase 2 trial was a two-part, double-blind study that evaluated the safety, tolerability, and clinical effects of dexpramipexole in ALS patients.
# In Part 1, subjects were randomized to placebo (n=27), 50 mg/day (n=23), 150 mg/day (n=26), or 300 mg/day dexpramipexole (n=26) for 12 weeks.
# [4] = test system: infiltrating white blood cells; settings: OVA mice, 30 and 100 mg/kg, day 42, compared to OVA
# eosinophils [5] = settings: OVA mice, 100 mg/kg, day 42, p=0.0041
# [6] = humans, exposures up to 18 months
compound,measurement,setting,value
"CCCN[C@@H]1CCc2nc(N)sc2C1 [dexpramipexole, (6R)-2-amino-4,5,6,7-tetrahydro-6-(propylamino)benzothiazole]",time at which basophil decline reached plateau,basophils,~4 month
same,safety assessment of eosinophil differences,"eosinophils [1]; minipig, in vivo",not considered adverse
same,effect on eosinophils,"eosinophils [1]; minipigs, 0, 7.5, 25 and 75 (50 from Study Day 46) mg/kg daily oral gavage, 39 weeks",dose- and time-dependent reduction in eosinophils
same,effect on peripheral blood eosinophil count,"eosinophils [2]; 300 mg daily, after 8-12 weeks of treatment, persisted for the duration of the trial",profound decrease
same,effect on eosinophil counts in a subject with elevated baseline eosinophil counts,"eosinophils [2]; Phase 3 subject with highest baseline eosinophil count, persisted through month 12",decrease in eosinophil counts
same,decrease in eosinophil count in subjects with higher eosinophil counts,"eosinophils [2]; subjects (n=42) with baseline >0.25×10^9/L, after 6 months of treatment",75%
same,"mean eosinophils at week 16 recovered to, of baseline levels",eosinophils [3]; 150 mg/day group,47%
same,"mean eosinophils at week 16 recovered to, of baseline levels",eosinophils [3]; 300 mg/day group,73%
same,effect on eosinophil counts,"eosinophils [3]; ALS subjects, Phase 2",dose- and time-dependent decrease in eosinophil counts
same,effect on eosinophil counts in a subject with hypereosinophilia at baseline,"eosinophils [3]; one Phase 2 subject, Part 2 baseline, persisted through month 12",decrease in eosinophil counts
same,infiltrating white blood cells in bronchoalveolar lavage fluid,[4],dose-dependent decrease in infiltrating white blood cells
same,circulating levels of eosinophils compared to vehicle-treated controls,eosinophils [5],significantly reduced
same,tolerability,[6],well-tolerated
